Source: patent US20250230193A1, “CYCLIC COMPOUND HAVING SELECTIVE KRAS INHIBITORY EFFECT ON HRAS AND NRAS” (CHUGAI SEIYAKU KABUSHIKI KAISHA, priority 2022, published 2025)
Where a SMILES comes first, the peptide text is derived from it. Bridges are numbered along the chain shown (N, C = ends). [ ]: non-standard residue; d: D form. The star is where a group is joined. hPhe(3-Cl-4-CF3) = N[C@@H](CCc1ccc(C(F)(F)F)c(Cl)c1)C(=O)O; NEtPhe(4-Me) = CCN[C@@H](Cc1ccc(C)cc1)C(=O)O; NMeGly(cPent) = CN[C@H](C(=O)O)C1CCCC1; Hyp = O=C(O)[C@@H]1C[C@@H](O)CN1; NMeD = CN[C@@H](CC(=O)O)C(=O)O; NMeL = CN[C@@H](CC(C)C)C(=O)O; Morpholide = C1CN(*)CCO1; NMeA = CN[C@@H](C)C(=O)O; Ac5c = NC1(C(=O)O)CCCC1; Aze = O=C(O)[C@@H]1CCN1; X45 = C1CCC(*)OC1; Sar = CNCC(=O)O

Experiments:
[1] = molecular target: GDP-bound HRAS wild-type protein (Homo sapiens, UniProt P01112); test: Binding to HRAS by surface plasmon resonance (SPR), Single Cycle Kinetics
[2] = molecular target: GDP-bound NRAS wild-type protein (Homo sapiens, UniProt P01111); test: Binding to NRAS by surface plasmon resonance (SPR), Single Cycle Kinetics
[3] = SPR, GDP-bound wild-type proteins

GDP-bound NRAS wild-type protein, sequence (P01111 whole entry): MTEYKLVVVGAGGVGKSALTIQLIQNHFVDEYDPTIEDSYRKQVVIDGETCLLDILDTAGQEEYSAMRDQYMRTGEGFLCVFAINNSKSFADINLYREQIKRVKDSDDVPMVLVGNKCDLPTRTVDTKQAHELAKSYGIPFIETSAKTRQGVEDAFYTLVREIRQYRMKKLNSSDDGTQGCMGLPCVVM
GDP-bound HRAS wild-type protein, sequence (P01112 whole entry): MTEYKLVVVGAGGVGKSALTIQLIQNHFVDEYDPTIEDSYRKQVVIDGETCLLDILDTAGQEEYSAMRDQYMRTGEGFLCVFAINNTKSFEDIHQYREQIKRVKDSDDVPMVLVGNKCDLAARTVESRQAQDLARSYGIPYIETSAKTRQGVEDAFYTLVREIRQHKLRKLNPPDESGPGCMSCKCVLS

SMILES: CC[C@H](C)[C@@H]1NC(=O)[C@@H]2CCCc3ccc(cc3)C[C@@H](C(=O)N(C)CC(=O)N[C@@H](CCc3ccc(C(F)(F)F)c(OC)c3)C(=O)N3CC4(CC4)C[C@H]3C(=O)NC3(CC(C)(C)C3)C(=O)N(C)[C@@H](C3CCCC3)C(=O)N(C)[C@H](C(=O)N(C)CC)CC(=O)N2C)N2CC/C=C\C[C@@H](C2=O)N(C)C(=O)CN(C)C1=O [PP3087]
- HRAS/KRAS (ratio of KD value with respect to GDP-bound HRAS wild-type protein to KD value with respect to KRAS) [1, 3]: B (a compound having 3 or more and less than 10 is denoted as B)
- NRAS/KRAS (ratio of KD value with respect to GDP-bound NRAS wild-type protein to KD value with respect to KRAS) [2, 3]: A (a compound having 10 or more and less than 20 is denoted as A)

SMILES: CC[C@H](C)[C@@H]1NC(=O)[C@H](CC)N(C)C(=O)C[C@@H](C(=O)N(C)C)N(C)C(=O)[C@H](C2CCCC2)N(C)C(=O)C2(CCCC2)N(C)C(=O)[C@@H]2CCCN2C(=O)[C@H](CCc2cc(F)c(C(F)(F)F)c(F)c2)NC(=O)CN(C)C(=O)[C@H](Cc2ccc(C(F)(F)F)cc2)N2CC/C=C\C[C@@H](C2=O)N(C)C(=O)CN(C)C1=O [PP1805]
- HRAS/KRAS (ratio of KD value for HRAS to KD value for KRAS) ([1]; KD ratio, GDP-bound HRAS wild-type vs GDP-bound KRAS wild-type, SPR): A (a compound having 10 or more and less than 20 is denoted as A)
- NRAS/KRAS (ratio of KD value for NRAS to KD value for KRAS) ([2]; KD ratio, GDP-bound NRAS wild-type vs GDP-bound KRAS wild-type, SPR): A (a compound having 10 or more and less than 20 is denoted as A)

SMILES: CC[C@H](C)[C@@H]1NC(=O)[C@H](CC(C)C)N(C)C(=O)C[C@@H](C(=O)N2CCOCC2)N(C)C(=O)[C@H](C2CCCC2)N(C)C(=O)C2(CCCC2)NC(=O)[C@@H]2C[C@@H](OC3CCCCO3)CN2C(=O)[C@H](CCc2ccc(C(F)(F)F)c(Cl)c2)NC(=O)CN(C)C(=O)[C@H](Cc2ccc(C)cc2)N(CC)C(=O)CN(C)C(=O)CN(C)C1=O (some centres unmarked) [PP0068] ([NMeL]I[Sar][Sar][NEtPhe(4-Me)][Sar][hPhe(3-Cl-4-CF3)][Hyp](X45)[Ac5c][NMeGly(cPent)][NMeD]-Morpholide; lactam N-11)
- HRAS/KRAS (ratio of KD for GDP-bound HRAS wild-type to KD for KRAS) ([1]; SPR): C (A compound having a KD ratio of 0.1 or more and less than 3 is denoted as C)
- NRAS/KRAS (ratio of KD for GDP-bound NRAS wild-type to KD for KRAS) ([2]; SPR): C (A compound having a KD ratio of 0.1 or more and less than 3 is denoted as C)

SMILES: CC[C@H](C)[C@@H]1NC(=O)[C@H](COC)N(C)C(=O)C[C@@H](C(=O)N(C)C)N(C)C(=O)[C@H](C2CCCC2)N(C)C(=O)C2(CC(C)(C)C2)NC(=O)[C@@H]2CCCCN2C(=O)[C@H](CCc2cc(F)c(C(F)(F)F)c(F)c2)NC(=O)CN(C)C(=O)[C@H](Cc2ccc(C(F)(F)F)cc2)N2CC/C=C\C[C@@H](C2=O)N(C)C(=O)CN(C)C1=O [PP2907]
- HRAS/KRAS (ratio of KD value with respect to GDP-bound HRAS wild-type protein to KD value with respect to KRAS) ([1]; class symbols): A (a compound having 10 or more and less than 20 is denoted as A)
- NRAS/KRAS (ratio of KD value with respect to GDP-bound NRAS wild-type protein to KD value with respect to KRAS) ([2]; class symbols): AA (a compound having 20 or more is denoted as AA)

SMILES: CCO[C@@H]1C[C@H]2C(=O)NC3(CCC3)C(=O)N(C)[C@@H](C3CCCC3)C(=O)N(C)[C@H](C(=O)N3CCOCC3)CC(=O)N(C)[C@@H](CC)C(=O)N[C@@H]([C@@H](C)CC)C(=O)N(C)CC(=O)N(C)[C@H]3CC/C=C(/C)CN(C3=O)[C@@H](Cc3ccc(C(F)(F)F)cc3)C(=O)N(C)CC(=O)N[C@@H](CCc3cc(F)c(C(F)(F)F)c(F)c3)C(=O)N2C1 [PP1335]
- HRAS/KRAS (ratio of KD value for GDP-bound HRAS wild-type protein to KD value for KRAS) ([1]; SPR, KD ratio class): B (a compound having 3 or more and less than 10 is denoted as B)
- NRAS/KRAS (ratio of KD value for GDP-bound NRAS wild-type protein to KD value for KRAS) ([2]; SPR, KD ratio class): B (a compound having 3 or more and less than 10 is denoted as B)

SMILES: CCO[C@@H]1C[C@H]2C(=O)NC3(CC(C)(C)C3)C(=O)N(C)[C@@H](C3CCCC3)C(=O)N(C)[C@H](C(=O)N3CCCCC3)CC(=O)N(C)[C@@H](COC)C(=O)N[C@@H]([C@@H](C)CC)C(=O)N(C)CC(=O)N(C)[C@H]3C/C=C\CCN(C3=O)[C@@H](Cc3ccc(C)cc3)C(=O)N(C)CC(=O)N[C@@H](CCc3cc(F)c(C(F)(F)F)c(F)c3)C(=O)N2C1 [PP2668]
- HRAS/KRAS (ratio of KD value with respect to GDP-bound HRAS wild-type protein to KD value with respect to KRAS) ([1]; class symbols): A (a compound having 10 or more and less than 20 is denoted as A)
- NRAS/KRAS (ratio of KD value with respect to GDP-bound NRAS wild-type protein to KD value with respect to KRAS) ([2]; class symbols): A (a compound having 10 or more and less than 20 is denoted as A)

SMILES: CC[C@H](C)[C@@H]1NC(=O)[C@H](CC(C)C)N(C)C(=O)C[C@@H](C(=O)N2CCOCC2)N(C)C(=O)[C@H](C2CCCC2)N(C)C(=O)C2(CCCC2)NC(=O)[C@@H]2C[C@@H](OC3CCCCO3)CN2C(=O)[C@H](CCc2ccc(C(F)(F)F)c(Cl)c2)NC(=O)CN(C)C(=O)[C@H](Cc2ccc(C)cc2)N(CC)C(=O)[C@@H]2CCN2C(=O)[C@H](C)N(C)C1=O (some centres unmarked) [PP0067] ([NMeL]I[NMeA][Aze][NEtPhe(4-Me)][Sar][hPhe(3-Cl-4-CF3)][Hyp](X45)[Ac5c][NMeGly(cPent)][NMeD]-Morpholide; lactam N-11)
- HRAS/KRAS (ratio of KD for GDP-bound HRAS wild-type to KD for KRAS) ([1]; SPR): C (A compound having a KD ratio of 0.1 or more and less than 3 is denoted as C)
- NRAS/KRAS (ratio of KD for GDP-bound NRAS wild-type to KD for KRAS) ([2]; SPR): C (A compound having a KD ratio of 0.1 or more and less than 3 is denoted as C)
